Experimental data reported in article PMC7221793, “Metabolism and Pharmacokinetics of SP-8356, a Novel (1S)-(−)-Verbenone Derivative, in Rats and Dogs and Its Implications in Humans” (Molecules, 2020).

Legend:
[1] = Metabolic stability in human liver S9 fraction; type: in vitro ADME; settings: for t1/2 / half-life at 1 µM: 1 μM
Description: The metabolic stability of SP-8356 was investigated using rat, dog and human liver S9 fractions fortified with cofactors for major drug metabolism. The final reaction mixture contained 1 mg/mL rat, dog or human liver S9 fraction, 1 mM cofactors (NADPH, UDPGA, PAPS, SAM and GSH), 2 mM MgCl2, 25 µg/mL alamethicin and 1 µM SP-8356 in final volume of 200 µL. The metabolic reactions were initiated by adding 10 mM cofactor solution to reaction mixtures preincubated for 5 min at 37 °C. The reactions were terminated at (0, 5, 15, 30 and 60) min by the addition of 200 µL ice-cold acetonitrile containing HSDH (1 µg/mL). The subsequent sample preparation and analytical methods were the same as those described in Section 4.5.
The degradation t1/2 of SP-8356 was calculated using the following Equation:(1) t1/2=0.693/k, where, k was the first-order rate constant calculated by one phase decay nonlinear regression using GraphPad Prism™ 7 (GraphPad Software, La Jolla, CA, USA). CLint was calculated using the following Equation:(2) CLint=k/fu,S9· mL incubation/mg liver S9· mg S9/g liver·g liver/kg body wt.
The scaling factors were (136, 120.7 and 120.7) mg S9 protein/g liver and (40, 32 and 26) g liver/kg body weight for rats, dogs and humans, respectively. For simplicity, the fraction unbound in S9 incubation (fu, S9) was assumed to be one. CLH was predicted using the hepatic well-stirred model, as follows:(3) CLH=QH·fu·CLint/QH+fu·CLint, where, QH was the hepatic blood flow of (55, 30 and 20) mL/min/kg for rats, dogs and humans, respectively. The fraction unbound (fu) was assumed to be one. EH was calculated using the following Equation:(4) EH=CLH/QH.

[2] = In vivo metabolite identification, pooled rat urine; settings: rat pooled urine 0–24 h, single i.v. dose of SP-8356
Description: Rat urine samples were collected from the animal studies approved by the IACUC of Korea University (Approval No.: KUIACUC-2017-124; Approval date: Jul. 29, 2017). SP-8356 dissolved in DMA/Cremophor EL/saline (5/10/85 vol.%) was dosed i.v. at 10 mg/kg (n = 5/dose group) to male SD rats (8 weeks old; (255–275) g; Koatech Inc., Gyeonggi, Republic of Korea) housed individually in metabolic cages. Urine samples were collected for ((0–4), (4–8) and (8–24)) h. Pooled urine samples were mixed with equal volume of acetonitrile containing HSDH (1 μg/mL) as IS, followed by filtration with a syringeless filter device (Mini-UniPrep™, PTFE filter media with polypropylene housing, 0.45 µm). The filtrate was analyzed by Agilent 6530 Q-TOF LC-MS/MS system equipped with dual AJS ESI ion source and Agilent 1200 series HPLC system, as follows.
Chromatographic separation was achieved on an Agilent Eclipse C18 column (2.1 mm × 100 mm, 3.5 µm) by a gradient elution with a mobile phase consisting of 0.1 vol.% formic acid in water (A) and 0.1 vol.% formic acid in acetonitrile (B) at 50 °C: starting with 5 vol.% B for 2 min, ramping to 95 vol.% B over 1 min, maintaining for 3 min. The mobile phase flow rate was kept at 0.45 mL/min throughout the run. The sample injection volume was 5 µL. […]

[3] = In vivo metabolite identification, pooled rat plasma (Q-TOF LC-MS/MS); settings: i.v. SP-8356 20 mg/kg
Description: Plasma samples from the i.v. administrations described in Section 4.2 and Section 4.3 were used in this study. Plasma samples pooled at each time point were subjected to sample preparation as described in Section 4.2. The prepared samples were analyzed by Agilent 6530 Q-TOF LC-MS/MS system equipped with dual AJS ESI ion source and Agilent 1200 series HPLC system as described below.
Chromatographic separation was achieved on an Agilent Eclipse C18 column (2.1 mm × 100 mm, 3.5 µm) by a gradient elution with a mobile phase consisting of 0.1 vol.% formic acid in water (A) and 0.1 vol.% formic acid in acetonitrile (B) at 50 °C: starting with 5 vol.% B for 2 min, ramping to 95 vol.% B over 1 min, maintaining for 3 min. The mobile phase flow rate was kept at 0.45 mL/min throughout the run. The sample injection volume was 5 µL. Ion source parameters were set as follows: capillary voltage, 3500 V; drying gas, 12 L/min and 300 °C; nebulizer gas, 30 psi; sheath gas, 12 L/min and 300 °C. Mass spectra were acquired in negative ion auto MS/MS mode (F, 135 V; CE, 25 eV) with full scan range of m/z (100–1000) and mass scan rate of 8 spectra/s. Metabolites were identified using Agilent MassHunter Metabolite ID software (version B.04.00) (Santa Clara, CA, USA). Chromatograms and mass spectra of the parent and identified metabolites were extracted using Agilent MassHunter Qualitative Analysis software (version B.05.00) (Santa Clara, CA, USA).

`COc1cc(/C=C/C2=CC(=O)[C@H]3C[C@@H]2C3(C)C)cc(O)c1O` [SP-8356, (1S,5R)-4-((E)-3,4-dihydroxy-5-methoxystryryl)-6,6-dimethylbicylco[3.1.1]hept-3-en-2-one] showed a t1/2 ([1]; human liver S9, +Cofactors (NADPH, UDPGA, PAPS, SAM, GSH)) of 2.1 min, a t1/2 ([1]; human liver S9, −Cofactors) of 24.1 min and a CLH ([1]; human, +Cofactors, predicted by well-stirred model) of 19.6 mL/min/kg. For the same compound, the half-life at 1 µM ([1]; human, liver S9 fraction, human liver S9, +Cofactors (NADPH, UDPGA, PAPS, SAM, GSH)) was under 3 min, the half-life at 1 µM ([1]; human, liver S9 fraction, human liver S9, −Cofactors) was under 30 min and the CLint scaled at 1 µM ([1]; liver S9 fraction, human liver S9, +Cofactors) was 1040 mL/min/kg. For the same compound, the “relative peak size (AR) in urine, in total” value [2] was “almost insignificant”, the “AUClast (%)” value ([3]; % versus total AUClast of parent and all detected metabolites) was 26.48% and the “AUClast (AR∙h) × 10^2” value ([3]; AR = peak area ratio versus internal standard) was 36.22 (AR∙h) × 10^2.
